Read-outs that look alike come from different tables or passages of the source. Ends that are not written are not given here.
Experiments:
[1] = system: Salmonella pullorum C 7913; assay type: cell-based; conditions: 18 h
S. aureus ATCC 29213 = assay type: cell-based
[2] = system: Salmonella typhimurium C 7731; assay type: cell-based
Method: (§2) The antimicrobial activity of the peptides were defined as the minimum inhibitory concentrations (MIC) according to the Clinical and Laboratory Standards Institute broth microdilution method as described previously [47]. Briefly, 50 μL two-fold serial dilutions of peptides (with final concentrations ranging from 0 μM to 256 μM) and 50 μL bacterial fluids diluted with MHB were added to 96-well microtiter plates. The plates were then incubated at 37 °C for 18 h.

E. coli UB 1005 = assay type: cell-based
Method: as §2

[3] = system: S. epidermidis ATCC 12228; assay type: cell-based
Method: as §2

E. coli ATCC 25922 = assay type: cell-based
Method: as §2

S. aureus ATCC 25923 = assay type: cell-based
E. coli ATCC25922 [4] = conditions: for MIC after Trypsin: peptide treated with 1 mg/mL trypsin
Method: (§1) The antimicrobial activity of the peptides were defined as the minimum inhibitory concentrations (MIC) according to the Clinical and Laboratory Standards Institute broth microdilution method as described previously. Briefly, 50 μL two-fold serial dilutions of peptides (with final concentrations ranging from 0 μM to 256 μM) and 50 μL bacterial fluids diluted with MHB were added to 96-well microtiter plates. The plates were then incubated at 37 °C for 18 h.
We assessed the salt stability, thermal stability, and enzymatic stability of the AMPs. Briefly, E. coli ATCC25922 was selected as the test bacterium. The control group was untreated peptides. Different concentrations of salts (150 mM NaCl, 4.5 mM KCl, 6 μM NH4Cl, 1 mM MgCl2, […], 8 mM […], 2.5 mM CaCl2, and 4 mM FeCl3) were added to the incubation buffer to examine the effect of each salt on the antimicrobial activities of the peptides. AMPs were treated for 1 h at 100 °C to test the thermal stability. AMPs were also treated with trypsin, pepsin, papain, and protease K at a concentration of 1 mg/mL for 1 h at 37 °C to test enzyme stability.

[5] = system: Salmonella enterica subsp. CMCC 50071; conditions: MHB, 37 °C, 18 h, peptides 0-256 μM, triplicate samples
Method: as §1

[6] = system: Salmonella typhimurium ATCC 14028; assay type: cell-based
Method: as §2

[7] = system: human red blood cells (hRBCs); test: Hemolytic activity; assay type: cell-based; conditions: lowest concentration causing 5% hemolysis of hRBCs; 1% hRBCs in PBS pH 7.2, 37 °C, 1 h, absorbance 570 nm
Method: Hemolytic activity against human red blood cells (hRBCs) was determined as described before. Briefly, 1 mL of fresh hRBCs was centrifuged in PBS (pH 7.2). After washing two times, the hRBCs were resuspended with PBS at a concentration of 1%. Next, 50 μL of the hRBCs solution was added to 50 μL PBS containing two-fold serial dilutions of peptides in each well. The plates were then incubated at 37 °C for 1 h and centrifuged at 1000× g for 5 min. The supernatants were removed, and the release of hemoglobin was determined by measuring the absorbance at 570 nm using a microplate reader (Bio-Rad, Hercules CA, USA). Erythrocyte suspensions in PBS and 0.1% Triton X-100 were used as negative and positive controls, respectively. Melittin was the control peptide.

[8] = system: all microbial strains in this table; test: Geometric mean of MICs and therapeutic index; assay type: cell-based; conditions: nine strains of Table 2
E. coli ATCC25922 [9] = test: Flow cytometry, PI staining of membrane damage; assay type: cell-based; conditions: 30 min, 37 °C
Method: Flow cytometry can quantify the amount of cells with membrane damage as reported previously. Briefly, E. coli ATCC 25922 grown to the logarithmic phase were centrifuged and re-suspended to an OD600 nm of 0.2 in PBS (pH 7.4). The suspensions were mixed with each peptide at 1/2× MIC or 1× MIC and incubated for 30 min at 37 °C with constant shaking (140 rpm). The cells were then harvested by centrifugation, washed three times with PBS, and incubated with Propidium Iodide (PI) at a final concentration of […] for 30 min at 4 °C. Finally, the unbound dye was removed by washing with an excess amount of PBS. The data were recorded using fluorescence-activated cell sorting (Becton Dickinson, Franklin Lakes NJ, USA).

[10] = S. aureus ATCC 29213, MHB, 37 °C, 18 h, peptides 0-256 μM, triplicate samples
[11] = E. coli ATCC25922, peptide treated with 1 mg/mL pepsin, 1 h, 37 °C
[12] = E. coli ATCC25922, untreated peptides

FPRRWQWRRPF-NH2 [FP-PF]
4 µM: MIC (E. coli ATCC 25922; ATCC25922, 18 h) | MIC after Protease K (E. coli ATCC25922 [4]; ATCC25922, 1 h) | MIC in the presence of Fe3+ (E. coli ATCC25922 [4]; ATCC25922, 18 h) | MIC, Control (enzymatic stability) (E. coli ATCC25922 [4]; ATCC25922, 18 h) | MIC, Control (salt stability) (E. coli ATCC25922 [4]; ATCC25922, 18 h) | MIC, Control (thermal stability) (E. coli ATCC25922 [4]; ATCC25922, 18 h)
64 µM: MIC ([2]; murium C 7731, 18 h) | MIC ([3]; ATCC 12228, 18 h) | MIC in the presence of Na+ (E. coli ATCC25922 [4]; ATCC25922, 18 h)
16 µM: MIC [1] | MIC after Pepsin (E. coli ATCC25922 [4]; ATCC25922, 1 h)
8 µM: MIC (E. coli UB 1005; UB 1005, 18 h) | MIC after Papain (E. coli ATCC25922 [4]; ATCC25922, 1 h) | MIC following heating at 100 °C (E. coli ATCC25922 [4]; ATCC25922, 1 h) | MIC in the presence of Ca2+ (E. coli ATCC25922 [4]; ATCC25922, 18 h) | MIC in the presence of K+ (E. coli ATCC25922 [4]; ATCC25922, 18 h) | MIC in the presence of Mg2+ (E. coli ATCC25922 [4]; ATCC25922, 18 h) | MIC in the presence of NH4+ (E. coli ATCC25922 [4]; ATCC25922, 18 h) | MIC in the presence of Zn2+ (E. coli ATCC25922 [4]; ATCC25922, 18 h)
32 µM: MIC (S. aureus ATCC 29213; ATCC 29213, 18 h) | MIC (S. aureus ATCC 25923; ATCC 25923, 18 h) | MIC ([6]; ATCC 14028, 18 h)
128 µM: MIC after Trypsin (E. coli ATCC25922 [4]; E. coli ATCC25922, 1 h, 37 °C) | MIC [5]

KCRRWQWRMKK-NH2 [LFcinB18–28, reference compound]
16 µM: MIC (E. coli ATCC 25922; E. coli ATCC 25922, MHB, 37 °C, 18 h, peptides 0-256 μM, triplicate samples) | MIC in the presence of Mg2+ (E. coli ATCC25922 [4]; E. coli ATCC25922, 1 mM MgCl2) | MIC in the presence of Ca2+ (E. coli ATCC25922 [4]; E. coli ATCC25922, 2.5 mM CaCl2) | MIC in the presence of K+ (E. coli ATCC25922 [4]; E. coli ATCC25922, 4.5 mM KCl) | MIC in the presence of Na+ (E. coli ATCC25922 [4]; E. coli ATCC25922, 150 mM NaCl) | MIC following heating at 100 °C (E. coli ATCC25922 [4]; E. coli ATCC25922, peptide treated 1 h at 100 °C) | MIC, Control (enzymatic stability) (E. coli ATCC25922 [4]; [12]) | MIC, Control (thermal stability) (E. coli ATCC25922 [4]; [12]) | MIC, Control (salt stability) (E. coli ATCC25922 [4]; E. coli ATCC25922, untreated peptides, no added salt)
>128 µM: MIC ([1]; Salmonella pullorum C 7913, MHB, 37 °C, peptides 0-256 μM, triplicate samples) | MIC (S. aureus ATCC 29213; [10]) | MIC ([2]; Salmonella typhimurium C 7731, MHB, 37 °C, 18 h, peptides 0-256 μM, triplicate samples) | MIC ([3]; S. epidermidis ATCC 12228, MHB, 37 °C, 18 h, peptides 0-256 μM, triplicate samples) | MIC after Papain (E. coli ATCC25922 [4]; E. coli ATCC25922, peptide treated with 1 mg/mL papain, 1 h, 37 °C) | MIC after Pepsin (E. coli ATCC25922 [4]; [11]) | MIC after Protease K (E. coli ATCC25922 [4]; E. coli ATCC25922, peptide treated with 1 mg/mL protease K, 1 h, 37 °C) | MIC after Trypsin (E. coli ATCC25922 [4]; E. coli ATCC25922, 1 h, 37 °C) | MIC [5] | MIC ([6]; Salmonella typhimurium ATCC 14028, MHB, 37 °C, 18 h, peptides 0-256 μM, triplicate samples)
8 µM: MIC in the presence of NH4+ (E. coli ATCC25922 [4]; E. coli ATCC25922, 6 μM NH4Cl) | MIC in the presence of Zn2+ (E. coli ATCC25922 [4]; E. coli ATCC25922, 8 mM ZnCl3)
128 µM: MIC (E. coli UB 1005; E. coli UB 1005, MHB, 37 °C, 18 h, peptides 0-256 μM, triplicate samples) | MIC (S. aureus ATCC 25923; S. aureus ATCC 25923, MHB, 37 °C, 18 h, peptides 0-256 μM, triplicate samples)
>256 µM: MHC (minimum hemolytic concentration) [7]
4 µM: MIC in the presence of Fe3+ (E. coli ATCC25922 [4]; E. coli ATCC25922, 4 mM FeCl3)

FWRRWQWRRWF-NH2 [FW-WF]
2 µM: MIC in the presence of NH4+ (E. coli ATCC25922 [4]; ATCC25922, 18 h)
58.7%: survival rates of the cells (no PI signal) (E. coli ATCC25922 [9]; 1× MIC)
78.67 µM: GM (geometric mean of MIC values from all microbial strains) [8]
16 µM: MIC ([2]; murium C 7731, 18 h) | MIC (E. coli UB 1005; UB 1005, 18 h) | MIC (S. aureus ATCC 25923; ATCC 25923, 18 h) | MIC after Protease K (E. coli ATCC25922 [4]; ATCC25922, 1 h)
>128 µM: MIC (S. aureus ATCC 29213; [10]) | MIC after Pepsin (E. coli ATCC25922 [4]; [11]) | MIC after Trypsin (E. coli ATCC25922 [4]; E. coli ATCC25922, 1 h, 37 °C) | MIC [5]
4 µM: MIC (E. coli ATCC 25922; ATCC25922, 18 h) | MIC after Papain (E. coli ATCC25922 [4]; ATCC25922, 1 h) | MIC in the presence of Fe3+ (E. coli ATCC25922 [4]; ATCC25922, 18 h) | MIC in the presence of K+ (E. coli ATCC25922 [4]; ATCC25922, 18 h) | MIC in the presence of Mg2+ (E. coli ATCC25922 [4]; ATCC25922, 18 h) | MIC in the presence of Zn2+ (E. coli ATCC25922 [4]; ATCC25922, 18 h) | MIC, Control (enzymatic stability) (E. coli ATCC25922 [4]; ATCC25922, 18 h) | MIC, Control (salt stability) (E. coli ATCC25922 [4]; ATCC25922, 18 h) | MIC, Control (thermal stability) (E. coli ATCC25922 [4]; ATCC25922, 18 h)
128 µM: MIC ([6]; ATCC 14028, 18 h)
8 µM: MIC [1] | MIC ([3]; ATCC 12228, 18 h) | MIC following heating at 100 °C (E. coli ATCC25922 [4]; ATCC25922, 1 h) | MIC in the presence of Ca2+ (E. coli ATCC25922 [4]; ATCC25922, 18 h) | MIC in the presence of Na+ (E. coli ATCC25922 [4]; ATCC25922, 18 h)
82.5%: survival rates of the cells (no PI signal) (E. coli ATCC25922 [9]; 1/2× MIC)

— article PMC6213309, “Antibacterial Activity and Mechanism of Action of Bovine Lactoferricin Derivatives with Symmetrical Amino Acid Sequences” (International Journal of Molecular Sciences, 2018)
